Source: ChEMBL document CHEMBL4418259, “Flavan-3-ol containing foodstuffs” (2012)

What follows are molecules tested against T1, Taste receptor type 2 member 39 (Homo sapiens) (UniProt P59534) (assay: Inhibition of human TAS2R39 expressed in HEK293 cells coexpressing G-protein at 10 mM assessed as reduction in epicatechin gallate-induced intracellular calcium release by Fluo-4-AM dye based fluorescence assay relative to control).
T1 sequence (whole entry): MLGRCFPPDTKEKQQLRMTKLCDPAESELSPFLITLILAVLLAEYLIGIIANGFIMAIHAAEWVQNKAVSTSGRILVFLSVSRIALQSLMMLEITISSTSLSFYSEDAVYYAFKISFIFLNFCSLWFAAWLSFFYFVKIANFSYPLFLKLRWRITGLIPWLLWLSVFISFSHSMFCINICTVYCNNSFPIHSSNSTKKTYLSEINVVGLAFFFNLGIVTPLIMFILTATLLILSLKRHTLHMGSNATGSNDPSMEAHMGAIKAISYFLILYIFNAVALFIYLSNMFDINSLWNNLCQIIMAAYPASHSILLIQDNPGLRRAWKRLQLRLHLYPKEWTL
Assay type: functional, cell-based

Row | Compound | inhibition
1 | COc1cc(CCC(=O)O)cc(OC)c1OC | 35%
2 | COc1cccc(C(=O)O)c1O | 25%
3 | O=C(O)/C=C/c1ccccc1 | 40%
4 | N[C@@H](Cc1ccccc1)C(=O)O | 0%
5 | COc1cc(/C=C/C(=O)O)ccc1O | 65%
6 | O=C(O)Cc1ccccc1 | 5%
7 | COc1cc(/C=C/C(=O)O)cc(OC)c1 | 20%
8 | COc1cccc(/C=C/C(=O)O)c1 | 0%
9 | COc1ccc(CC(=O)O)cc1 | 15%
10 | COc1ccc(/C=C/C(=O)O)c(OC)c1 | 40%
11 | O=C(O)/C=C/c1ccc(O)c(O)c1 | 30%
12 | COc1cccc(C(=O)O)c1 | 5%
13 | O=C(O)CCc1ccc(O)cc1 | 25%
14 | O=C(O)/C=C/c1ccc(O)cc1 | 40%
15 | COc1ccc(CCC(=O)O)cc1OC | 35%
16 | O=C(O)c1ccc(O)cc1 | 25%
17 | COc1ccc(/C=C/C(=O)O)cc1 | 30%
18 | COc1cc(/C=C/C(=O)O)cc(OC)c1OC | 70%

Row | Compound | inhibition
19 | COc1ccc(C(=O)O)cc1OC | 10%
20 | O=C(O)c1cc(O)c(O)c(O)c1 | 25%
21 | COc1cc(/C=C/C(=O)O)cc(OC)c1O | 65%
22 | COc1ccc(CCC(=O)O)cc1 | 40%
23 | O=C(O)c1ccc(O)c(O)c1 | 15%
24 | COc1ccc(C(=O)O)cc1 | 15%
25 | O=C(O)CCc1ccccc1 | 15%
26 | COc1ccccc1/C=C/C(=O)O | 0%
27 | O=C(O)Cc1ccc(O)c(O)c1 | 15%
28 | COc1cc(CCC(=O)O)ccc1O | 35%
29 | O=C(O)CCCc1ccccc1 | 40%
30 | COc1ccccc1C(=O)O | 10%
31 | O=C(O)CCc1ccc(O)c(O)c1 | 30%
32 | COc1cc(C(=O)O)cc(OC)c1OC | 20%
33 | COc1cc(CC(=O)O)cc(OC)c1OC | 25%
34 | O=C(O)Cc1ccc(O)cc1 | 20%
35 | O=C(O)c1ccccc1 | 20%
